Columns and labels:
[1] = transport through open pores in the SC of a plasma treated area; conditions: applied more than 5 minutes after plasma treatment
[2] = plasmaporation-enhanced transdermal delivery across ex vivo porcine skin; assay type: in vitro ADME
Source text: 27, 2013 and Sep. 29, 2013 incorporated herein. Others devices and techniques are described in U.S. Non-Provisional application Ser. No. 14/564,717 filed on Dec. 9, 2014, U.S. Non-Provisional application Ser. No. 14/610,467 filed on Jan. 30, 2015, and U.S. Non-Provisional application Ser. No. 14/967,512 filed on Dec. 14, 2015. All of these applications are incorporated by reference herein in their entirety.

Substance | transport through the SC when applied after 5 minutes [1] | skin damage [2] | time of transdermal delivery of topically applied molecules across skin with plasmaporation ([2]; topically applied) [min]
Dextran [10 kDa Dextran] | no longer passed through the SC |  | 
dextran |  | without creating skin damage | ≤ 15
